Reference: patent US7087635B2, “3-substituted oxindole β3 agonists” (Eli Lilly and Company, priority 2001, dated 2006)

molecular target: T1, human β3 adrenergic receptor (Homo sapiens, UniProt P13945); assay: whole cell receptor coupled c-AMP assay (Emax relative to isoproterenol); assay type: cell-based; conditions: % intrinsic activity relative to isoproterenol maximal response; transfected CHO cells
T1 construct: expressed in transfected cells; host or cells: DXB-11 Chinese hamster ovary (CHO) cell line, stably transfected, phd expression vector
T1 sequence (P13945 whole entry): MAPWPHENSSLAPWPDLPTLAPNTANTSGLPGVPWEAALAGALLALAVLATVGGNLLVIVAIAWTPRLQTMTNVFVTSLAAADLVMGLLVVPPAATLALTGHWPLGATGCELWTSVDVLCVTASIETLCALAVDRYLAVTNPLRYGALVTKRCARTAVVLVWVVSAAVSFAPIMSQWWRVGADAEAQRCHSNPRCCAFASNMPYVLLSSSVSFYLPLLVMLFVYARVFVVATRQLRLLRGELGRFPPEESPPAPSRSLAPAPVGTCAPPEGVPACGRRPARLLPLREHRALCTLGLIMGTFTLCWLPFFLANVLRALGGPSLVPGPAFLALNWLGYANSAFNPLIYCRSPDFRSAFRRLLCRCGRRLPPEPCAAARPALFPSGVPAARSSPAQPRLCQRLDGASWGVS
Text: The genes encoding the human β1-adrenergic receptor (Frielle et al., Proc. Natl. Acad. Sci., 84:7920–7924, 1987), the human β2-adrenergic receptor (Kobika el al., Proc. Natl. Acad. Sci., 84:46–50, 1987, Emorine et al., Proc. Natl. Acad. Sci., 84:6995–6999, 1987) and the human β3 adrenergic receptor (Granneman et al., Molecular Pharmacology, 44(2):264–70, 1993) are individually subcloned into a phd expression vector (Grinnell et al., Bio/Technology, 5:1189–1192, 1987) and transfected into the DXB-11 Chinese hamster ovary (CHO) cell line by calcium phosphate precipitation methodology. The stably transfected cells are grown to 95% confluency in 95% Dulbecco's modified Eagles Medium (DMEM), 5% fetal bovine serum and 0.01% proline. Media is removed and the cells are washed with phosphate buffered (pH 7.4) saline (without magnesium and calcium). Cells are then lifted using an enzyme free cell dissociation solution (Specialty Media, Lavallette, N.J.) and pelleted by centrifugation.
Cells from each of the above cell lines are resuspended and added (20,000/well) to a 96-well plate. Cells are incubated at 37° C. with representative compounds of the invention for 20 minutes in buffer (Hank's balanced salt solution, 10 mM HEPES, 0.1% BSA, 1 mM L-ascorbic acid, 0.2% dimethyl sulfoxide, 1 mM 3-isobutyl-1-methylxanthine, pH 7.4). After halting the incubation with quench buffer (50 mM Na Acetate, 0.25% Triton X-100, pH 5.8), the c-AMP level is quantified by scintillation proximity assay (SPA) using a modification of the commercially available c-AMP kit (Amersham, Arlington Heights, Ill.) with rabbit anti-cAMP antibody (ICN Biomedicals, Aurora, Ohio) for the kit.
Sigmoidal dose response curves, from the whole cell receptor coupled c-AMP assay are fit to a four parameter logistic equation using non linear regression: y=(a–d)/(1+(Dose/c)^b)+d where a and d are responses at zero and maximal dose, b is the slope factor and c is the EC50 as previously described (DeLean et al., Am. J. Physiol., 235, E97–E102, 1978). EC50 is assessed as the concentration producing 50% of the maximum response to each agonist.
Isoproterenol is accepted in the art as a non-selective β3 agonist and is widely used as a comparator in evaluating the activity of compounds. See Trends in Pharm. Sci., 15:3, 1994. The % intrinsic activity (Emax) of representative compounds of the invention is assessed relative to isoproterenol by the compound's maximal response divided by the isoproterenol maximal response times 100.

SMILES	Emax
C[C@H](Cn1ccc2c(OCC(=O)O)cccc21)NC[C@H](O)COc1cccc2c1C1(CCCC1)C(=O)N2 [Example 68]	73.3%
CC(C)(Cc1c[nH]c2c(OCC3=NCCS3)cccc12)NC[C@H](O)COc1cccc2c1C1(CCCC1)C(=O)N2 [Example 66]	84.9%
CC(C)(Cc1c[nH]c2c(C(=O)O)cccc12)NC[C@H](O)COc1cccc2c1C1(CCCC1)C(=O)N2 [Example 71]	59.5%
CC(C)(Cc1c[nH]c2cccc(C(=O)O)c12)NC[C@H](O)COc1cccc2c1C1(CCCC1)C(=O)N2 [Example 69]	37.9%
CC(C)(Cc1c[nH]c2cc(C(=O)O)ccc12)NC[C@H](O)COc1cccc2c1C1(CCCC1)C(=O)N2 [Example 72]	56.2%
CC(C)(Cc1c[nH]c2c(Oc3ccc(C(N)=O)cn3)cccc12)NC[C@H](O)COc1cccc2c1C1(CCCC1)C(=O)N2 [Example 75]	80.1%
CC(C)(Cc1c[nH]c2c(Oc3ccc(C(=O)O)cn3)cccc12)NC[C@H](O)COc1cccc2c1C1(CCCC1)C(=O)N2 [Example 73]	82.4%
CC(C)(Cc1c[nH]c2ccc(C(=O)O)cc12)NC[C@H](O)COc1cccc2c1C1(CCCC1)C(=O)N2 [Example 70]	53.5%
CC(C)(Cc1c[nH]c2c(-c3cccc(C(=O)O)c3)cccc12)NC[C@H](O)COc1cccc2c1C1(CCCC1)C(=O)N2 [Example 78]	93.5%
CC(C)(Cc1c[nH]c2c(Oc3ccc(-c4nn[nH]n4)cn3)cccc12)NC[C@H](O)COc1cccc2c1C1(CCCC1)C(=O)N2 [Example 74]	78.1%
CC(C)(Cc1c[nH]c2c(Oc3ncccc3-c3nn[nH]n3)cccc12)NC[C@H](O)COc1cccc2c1C1(CCCC1)C(=O)N2 [Example 76]	80.1%

Second part, the compound after the results:

Emax	SMILES
72.7%	CC(C)(Cc1c[nH]c2cc(CCc3nnn[nH]3)ccc12)NC[C@H](O)COc1cccc2c1C1(CCCC1)C(=O)N2 [Example 82]
78.5%	CC(C)(Cc1c[nH]c2c(CCc3ccc(S(N)(=O)=O)cc3)cccc12)NC[C@H](O)COc1cccc2c1C1(CCCC1)C(=O)N2 [Example 84]
77.4%	CC(C)(Cc1c[nH]c2c(CCc3nnn[nH]3)cccc12)NC[C@H](O)COc1cccc2c1C1(CCCC1)C(=O)N2 [Example 81]
48.3%	CC(C)(Cc1c[nH]c2cccc(C(N)=O)c12)NC[C@H](O)COc1cccc2c1C1(CCCC1)C(=O)N2 [Example 85]
79.3%	CC(C)(Cc1c[nH]c2c(CCc3cnccn3)cccc12)NC[C@H](O)COc1cccc2c1C1(CCCC1)C(=O)N2 [Example 83]
77.2%	CC(C)(Cc1c[nH]c2c(CCC(=O)O)cccc12)NC[C@H](O)COc1cccc2c1C1(CCCC1)C(=O)N2 [Example 80]
75.1%	CC(C)(Cc1c[nH]c2c(-c3ccc(C(=O)O)s3)cccc12)NC[C@H](O)COc1cccc2c1C1(CCCC1)C(=O)N2 [Example 79]
